Laboratory results from patent US20040248887A1, “Inhibitors of cathepsin S” (IRM LLC, priority 2003, published 2004).

target: Cathepsin S (Homo sapiens, UniProt P25774); test: Cathepsin S inhibition, fluorogenic peptide substrate kinetic assay; type: biochemical; settings: Table II; Cathepsin S inhibition constant, pH5.5; read-out: Ki Cat. S
Description: “Inhibition constant”, Ki, is the dissociation constant of the enzyme-inhibitor complex, or the reciprocal of the binding affinity of the inhibitor to the enzyme. […] The inhibited rates are then fit by nonlinear regression to the following equation: [formula]
where vo is the initial rate of substrate processing in the absence of inhibitor, v; is the initial rate of substrate processing at a concentration [I] of inhibitor, Km is the steady state Michaelis constant (Fersht, A. Structure and Mechanism in Protein Science. New York, W.H. Freeman and Company, 1999), and [S] is the concentration of competitive substrate.
The assumption being made for the classical inhibition described above is that the free inhibitor concentration is equal to the total inhibitor concentration.
The inhibition constant, Ki, can be determined from the apparent inhibition constant, Ki^app, for competitive inhibitors by using the following relationship: [formula]
The optimal substrate for cathepsin S, acetyl-histidine-proline-valine-lysine-amino carbamoyl coumarin, was identified from screening a combinatorial library of fluorogenic peptide substrates (Harris, J. L., B. J. Backes, et al., Proc Natl Acad Sci USA 2000, 97(14), 7754-9). Kinetic measurements are performed in a total reaction volume of 30 μl in 384-well microtiter plates. […] The reactions are initiated by adding the substrate, acetyl-histidine-proline-valine-lysine-amino carbamoyl coumarin, to a final concentration of 50 μM. The rate of substrate hydrolysis is measured by monitoring the increase in fluorescence at an excitation wavelength of 380 nm and an emission wavelength of 450 nm that results from cleavage of the aniline bond in the substrate by the enzyme. The apparent inhibition constants for the compounds are determined from the enzyme progress curves (Kuzmic, P., K. C. Elrod, et al., Anal Biochem 2000, 286(1), 45-50) and are then used to calculate the inhibition constants for competitive inhibitors.

Sequence of Cathepsin S (P25774 115-331, species assumed): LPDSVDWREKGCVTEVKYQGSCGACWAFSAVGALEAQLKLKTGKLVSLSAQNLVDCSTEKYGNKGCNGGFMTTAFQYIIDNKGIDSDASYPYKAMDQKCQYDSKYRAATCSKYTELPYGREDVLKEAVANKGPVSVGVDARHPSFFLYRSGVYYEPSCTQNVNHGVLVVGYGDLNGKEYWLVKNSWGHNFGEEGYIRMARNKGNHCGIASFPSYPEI

| Compound | Ki [µM] |
| --- | --- |
| C[C@@H](CNc1cc(Cl)ccc1F)NC(=O)[C@H](CC1CCCCC1)NC(=O)c1ccc(-c2cccc(F)c2)o1 [Compound 97, 5-(3-Fluoro-phenyl)-furan-2-carboxylic acid {1-(S)-[2-(5-chloro-2-fluoro-phenylamino)-1-(S)-methyl-ethylcarbamoyl]-2-cyclohexyl-ethyl}-amide] | < 1 |
| CS(=O)(=O)N[C@@H](CC1CCCCC1)C(=O)NCCN1CCc2cc(F)ccc21 [Compound 249, (S)-3-Cyclohexyl-N-[2-(5-fluoro-2,3-dihydro-indol-1-yl)-ethyl]-2-methanesulfonylamino-propionamide] | < 10 |
| Cc1cccc(C(=O)N[C@@H](Cc2ccc(Cl)cc2)C(=O)NCCN2CCc3cc(F)ccc32)c1 [Compound 199, N-((S)-1-(2-(5-fluoroindolin-1-yl)ethylcarbamoyl)-2-(4-chlorophenyl)ethyl)-3-methylbenzamide] | < 0.1 |
| COc1ccc(N[C@@H]2CCCC[C@H]2NC(=O)[C@H](CC(C)C)NC(=O)c2cccc(C)c2)cc1 (mixture of isomers) [Compound 34, N-{1-(S)-[trans-2-(4-Methoxy-phenylamino)-cyclohexylcarbamoyl]-3-methyl-butyl}-3-methyl-benzamide] | < 1 |
| COc1cc(COC[C@@H](CN2CCc3cc(F)ccc32)NC(=O)[C@H](CCC2CCCCC2)NC(=O)c2cccc(OC)c2)cc(OC)c1 [Compound 170, N-{3-Cyclohexyl-1-(S)-[2-(3,5-dimethoxy-benzyloxy)-1-(R)-(5-fluoro-2,3-dihydro-indol-1-ylmethyl)-ethylcarbamoyl]-propyl}-3-methoxy-benzamide] | < 0.1 |
| COc1cccc(C(=O)N[C@@H](Cc2ccc(F)cc2)C(=O)N[C@@H](COCc2ccccc2)CN2CCc3cc(F)ccc32)c1 [Compound 37, N-[1-(S)-[1-(R)-Benzyloxymethyl-2-(5-fluoro-2,3-dihydro-indol-1-yl)-ethylcarbamoyl]-2-(4-fluoro-phenyl)-ethyl]-3-methoxy-benzamide] | < 0.1 |
| C[C@@H](CNc1ccc(S(N)(=O)=O)cc1)NC(=O)[C@H](CC1CCCCC1)NC(=O)c1ccc(-c2cccc(F)c2)o1 [Compound 138, 5-(3-Fluoro-phenyl)-furan-2-carboxylic acid {2-cyclohexyl-1-(S)-[1-(S)-methyl-2-(4-sulfamoyl-phenylamino)-ethylcarbamoyl]-ethyl}-amide] | < 1 |
| C[C@@H](CNc1cccc(F)c1)NC(=O)[C@H](CC1CCCCC1)NC(=O)c1ccc(-c2cccc(F)c2)o1 [Compound 99, 5-(3-Fluoro-phenyl)-furan-2-carboxylic acid {2-cyclohexyl-1-(S)-[2-(3-fluoro-phenylamino)-1-(S)-methyl-ethylcarbamoyl]-ethyl}-amide] | < 0.1 |
| Cc1cccc(S(=O)(=O)N[C@@H](CC(C)(C)C)C(=O)N[C@@H](C)CN2CCc3cc(F)ccc32)c1 [Compound 265, (S,S)-4,4-Dimethyl-2-(toluene-3-sulfonylamino)-pentanoic acid [2-(5-fluoro-2,3-dihydro-indol-1-yl)-1-methyl-ethyl]-amide] | < 0.1 |
| C[C@@H](CN1CCc2cc(F)ccc21)NC(=O)[C@H](CC(C)(C)C)NC(=O)OCc1ccccc1 [Compound 176, {1-(S)-[2-(5-Fluoro-2,3-dihydro-indol-1-yl)-1-(S)-methyl-ethylcarbamoyl]-3,3-dimethyl-butyl}-carbamic acid benzyl ester] | < 0.1 |
| O=C(N[C@@H](Cc1cccc(Cl)c1)C(=O)NCCN1CCc2cc(F)ccc21)c1ccc(-c2cccc(C(F)(F)F)c2)o1 [Compound 196, N-((S)-1-(2-(5-fluoroindolin-1-yl)ethylcarbamoyl)-2-(3-chlorophenyl)ethyl)-5-(3-(trifluoromethyl)phenyl)furan-2-carboxamide] | < 1 |
| C[C@@H](CN1CCc2cc(F)ccc21)NC(=O)[C@H](CC1CCCCC1)NS(=O)(=O)c1csc(-c2cnco2)c1 [Compound 250, (S,S)-3-Cyclohexyl-N-[2-(5-fluoro-2,3-dihydro-indol-1-yl)-1-methyl-ethyl]-2-(5-oxazol-5-yl-thiophene-3-sulfonylamino)-propionamide] | < 0.1 |
| O=C(Nc1ccc(-c2ccccc2)s1)N[C@@H](CC1CCCCC1)C(=O)NCCN1CCc2cc(F)ccc21 [Compound 219, (S)-3-Cyclohexyl-N-[2-(5-fluoro-2,3-dihydro-indol-1-yl)-ethyl]-2-[3-(5-phenyl-thiophen-2-yl)-ureido]-propionamide] | < 10 |
| CC(C)(C)C[C@H](NC(=O)c1ccc(-c2cccc(C(F)(F)F)c2)o1)C(=O)NCCN1CCc2cc(F)ccc21 [Compound 202, N-((S)-1-(2-(5-fluoroindolin-1-yl)ethylcarbamoyl)-3,3-dimethylbutyl)-5-(3-(trifluoromethyl)phenyl)furan-2-carboxamide] | < 0.1 |
| O=C(NCCN1CCc2cc(F)ccc21)[C@H](CC1CCCCC1)NS(=O)(=O)c1ccsc1 [Compound 248, (S)-3-Cyclohexyl-N-[2-(5-fluoro-2,3-dihydro-indol-1-yl)-ethyl]-2-(thiophene-3-sulfonylamino)-propionamide] | < 1 |
| Cc1cc(NC[C@H](C)NC(=O)[C@H](CC2CCCCC2)NC(=O)c2ccc(-c3cccc(F)c3)o2)on1 [Compound 247, 5-(3-Fluoro-phenyl)-furan-2-carboxylic acid {2-cyclohexyl-1-(S)-[1-(S)-methyl-2-(3-methyl-isoxazol-5-ylamino)-ethylcarbamoyl]-ethyl}-amide] | < 1 |
| C[C@@H](CNc1ccc(F)cc1)NC(=O)[C@H](CC1CCCCC1)NC(=O)c1ccc(-c2cccc(F)c2)o1 [Compound 126, 5-(3-Fluoro-phenyl)-furan-2-carboxylic acid {2-cyclohexyl-1-(S)-[2-(4-fluoro-phenylamino)-1-(S)-methyl-ethylcarbamoyl]-ethyl}-amide] | < 0.1 |
| O=C(NCCN1CCc2cc(F)ccc21)[C@H](CC1CCCCC1)NS(=O)(=O)c1scc(Br)c1Cl [Compound 224, (S)-2-(4-Bromo-3-chloro-thiophene-2-sulfonylamino)-3-cyclohexyl-N-[2-(5-fluoro-2,3-dihydro-indol-1-yl)-ethyl]-propionamide] | < 1 |
| O=C(NCCN1CCc2cc(F)ccc21)[C@H](CC1CCCCC1)NS(=O)(=O)c1ccc(-c2cnco2)cc1 [Compound 246, (S)-3-Cyclohexyl-N-[2-(5-fluoro-2,3-dihydro-indol-1-yl)-ethyl]-2-(4-oxazol-5-yl-benzenesulfonylamino)-propionamide] | < 0.1 |
| C[C@@H](CNc1cccc(Cl)c1)NC(=O)[C@H](CC1CCCCC1)NC(=O)c1ccc(-c2cccc(F)c2)o1 [Compound 94, 5-(3-Fluoro-phenyl)-fuiran-2-carboxylic acid {1-(S)-[2-(3-chloro-phenylamino)-1-(S)-methyl-ethylcarbamoyl]-2-cyclohexyl-ethyl}-amide] | < 0.1 |
| C[C@@H](CN1CCc2cc(F)ccc21)NC(=O)[C@H](CC1CCCCC1)NS(=O)(=O)c1ccccc1 [Compound 264, (S,S)-2-Benzenesulfonylamino-3-cyclohexyl-N-[2-(5-fluoro-2,3-dihydro-indol-1-yl)-1-methyl-ethyl]-propionamide] | < 0.1 |
| C[C@@H](CNc1cccc(OC(F)(F)F)c1)NC(=O)[C@H](CC1CCCCC1)NC(=O)c1ccc(-c2cccc(F)c2)o1 [Compound 111, 5-(3-Fluoro-phenyl)-furan-2-carboxylic acid {2-cyclohexyl-1-(S)-[1-(S)-methyl-2-(3-trifluoromethoxy-phenylamino)-ethylcarbamoyl]-ethyl}-amide] | < 0.1 |
| O=C(NCCN1CCc2cc(F)ccc21)[C@H](CC1CCCCC1)NS(=O)(=O)c1ccc(OC(F)(F)F)cc1 [Compound 230, (S)-3-Cyclohexyl-N-[2-(5-fluoro-2,3-dihydro-indol-1-yl)-ethyl]-2-(4-trifluoromethoxy-benzenesulfonylamino)-propionamide] | < 1 |
| O=C(N[C@@H](CC1CCCCC1)C(=O)NCCN1CCc2cc(F)ccc21)c1ccco1 [Compound 9, Furan-2-carboxylic acid (S)-{2-cyclohexyl-1-[2-(5-fluoro-2,3-dihydro-indol-1-yl)-ethylcarbamoyl]-ethyl}-amide] | < 0.1 |
| C[C@@H](CNc1ccc(OC(F)(F)F)cc1)NC(=O)[C@H](CC1CCCCC1)NC(=O)[C@@H]1CCCO1 [Compound 29, Tetrahydrofuran-2-(S)-carboxylic acid {2-cyclohexyl-1-(S)-[1-(S)-methyl-2-(4-trifluoromethoxy-phenylamino)-ethylcarbamoyl]-ethyl}-amide] | < 0.1 |
| C[C@@H](CNc1ccc(S(C)(=O)=O)cc1)NC(=O)[C@H](CC1CCCCC1)NC(=O)c1ccc(-c2ccc(F)cc2)o1 [Compound 107, 5-(4-Fluoro-phenyl)-furan-2-carboxylic acid {2-cyclohexyl-1-(S)-[2-(4-methanesulfonyl-phenylamino)-1-(S)-methyl-ethylcarbamoyl]-ethyl}-amide] | < 0.1 |
